Measurements from patent US20230233569A1 (Revolution Medicines, Inc., priority 2020, published 2023).

Key:
NRAS Q61R = NRAS Q61R (Homo sapiens, UniProt P01111+P62937, Q61R); assay: Disruption of BRAF RBD interaction with Ras (FRET / MOA assay, with Cyclophilin A); format: biochemical; conditions: NRAS Q61R; read-out: NRAS Q61R FRET data IC50
Excerpt: Disruption of B-Raf Ras-Binding Domain (BRAF^RBD) Interaction with K-Ras by Compounds of the Invention (Also Called a FRET Assay or an MOA Assay)
Note—The following protocol describes a procedure for monitoring disruption of K-Ras G12C (GMP-PNP) binding to BRAF^RBD by a compound of the invention. This protocol may also be executed substituting other Ras proteins or nucleotides.
(§1) The purpose of this biochemical assay was to measure the ability of test compounds to facilitate ternary complex formation between a nucleotide-loaded K-Ras isoform and Cyclophilin A; the resulting ternary complex disrupts binding to a BRAF^RBD construct, inhibiting K-Ras signaling through a RAF effector. Data is reported as IC50 values.
In assay buffer containing 25 mM HEPES pH 7.3, 0.002% Tween20, 0.1% BSA, 100 mM NaCl and 5 mM MgCl2, tagless Cyclophilin A, His6-K-Ras-GMPPNP, and GST-BRAF^RBD were combined in a 384-well assay plate at final concentrations of 25 μM, 12.5 nM and 50 nM, respectively. Compound was present in plate wells as a 10-point 3-fold dilution series starting at a final concentration of 30 μM. After incubation at 25° C. for 3 hours, a mixture of Anti-His Eu-W1024 and anti-GST allophycocyanin was then added to assay sample wells at final concentrations of 10 nM and 50 nM, respectively, and the reaction incubated for an additional 1.5 hours. […] Compounds that facilitate disruption of a K-Ras:RAF complex were identified as those eliciting a decrease in the TR-FRET ratio relative to DMSO control wells.
as §1, with “BRAF^RBDD” for “BRAF^RBD”

Capan-1 (K-Ras G12V) = assay: CellTiter-Glo cell viability assay, 5-day treatment; format: cell-based; conditions: Homo sapiens, CAPAN-1, 120 h, 5-day treatment; read-out: Capan-1 Cell Viability assay data (K-Ras G12V, IC50)
Outline: (§2)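 Viability is read as luminescence on day 5 after direct compound addition to plated cells, following about 30 minutes' room-temperature equilibration. Each signal is scaled to mean DMSO as 100%.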

NCI-H358 (K-Ras G12C) = assay: as above; format: cell-based; conditions: Homo sapiens, NCI-H358, 120 h, 5-day treatment; read-out: H358 Cell Viability assay data (K-Ras G12C, IC50)
Outline: as §2

KRAS G12C = KRAS G12C (Homo sapiens, UniProt P01116+P62937, G12C); assay: Disruption of BRAF RBD interaction with Ras (FRET / MOA assay, with Cyclophilin A); format: biochemical; conditions: read-out: KRAS G12C FRET data, IC50
Chain of KRAS G12C (P01116 1-169 isoform P01116-2 G12C): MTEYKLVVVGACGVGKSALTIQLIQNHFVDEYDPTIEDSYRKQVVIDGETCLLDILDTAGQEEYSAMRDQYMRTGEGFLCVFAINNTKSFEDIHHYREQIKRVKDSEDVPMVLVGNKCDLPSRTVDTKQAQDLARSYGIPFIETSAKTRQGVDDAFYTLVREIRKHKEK
Chain of KRAS G12C (P62937 whole entry): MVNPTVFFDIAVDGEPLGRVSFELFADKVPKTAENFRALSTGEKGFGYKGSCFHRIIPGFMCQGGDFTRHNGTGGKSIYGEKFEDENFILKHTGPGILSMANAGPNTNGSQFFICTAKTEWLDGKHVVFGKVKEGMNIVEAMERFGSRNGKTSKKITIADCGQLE
Outline: (§3)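 Compound-driven ternary complex formation between nucleotide-loaded K-Ras and Cyclophilin A was measured as loss of BRAF RBD binding. Compounds (10-point 3-fold series, top 30 μM final) were incubated 3 h at 25 °C, then anti-His Eu-W1024 (10 nM) and anti-GST allophycocyanin (50 nM) added for 1.5 h. IC50 was taken from the TR-FRET ratio decrease versus DMSO.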

KRAS G12D = KRAS G12D (Homo sapiens, UniProt P01116+P62937, G12D); assay: as above; format: biochemical; conditions: read-out: KRAS G12D FRET data, IC50
Chain of KRAS G12D (P01116 1-169 isoform P01116-2 G12D limits assumed): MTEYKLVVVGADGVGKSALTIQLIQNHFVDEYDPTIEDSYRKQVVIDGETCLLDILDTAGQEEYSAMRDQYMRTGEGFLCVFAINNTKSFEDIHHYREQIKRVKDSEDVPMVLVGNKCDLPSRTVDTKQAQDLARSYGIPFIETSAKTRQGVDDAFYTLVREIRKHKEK
Chain of KRAS G12D (P62937 whole entry): as the sequence (P62937 whole entry) above
Outline: as §3

KRAS G12S = KRAS G12S (Homo sapiens, UniProt P01116+P62937, G12S); assay: as above; format: biochemical; conditions: read-out: KRAS G12S FRET data, IC50
Chain of KRAS G12S (P01116 1-169 isoform P01116-2 G12S limits assumed): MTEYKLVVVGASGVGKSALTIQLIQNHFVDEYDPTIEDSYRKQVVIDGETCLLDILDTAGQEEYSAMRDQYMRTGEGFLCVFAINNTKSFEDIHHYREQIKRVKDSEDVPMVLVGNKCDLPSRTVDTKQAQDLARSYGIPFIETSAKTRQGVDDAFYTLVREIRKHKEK
Chain of KRAS G12S (P62937 whole entry): as the sequence (P62937 whole entry) above
Outline: as §3

KRAS G12V = KRAS G12V (Homo sapiens, UniProt P01116+P62937, G12V); assay: as above; format: biochemical; conditions: KRAS G12V; read-out: KRAS G12V FRET data IC50
Chain of KRAS G12V (P01116 1-169 isoform P01116-2 G12V limits assumed): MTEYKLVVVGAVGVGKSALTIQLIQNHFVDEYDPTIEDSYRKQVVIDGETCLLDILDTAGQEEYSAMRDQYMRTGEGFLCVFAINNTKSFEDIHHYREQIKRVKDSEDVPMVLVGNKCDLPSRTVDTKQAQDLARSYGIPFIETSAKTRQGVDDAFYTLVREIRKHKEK
Chain of KRAS G12V (P62937 whole entry): as the sequence (P62937 whole entry) above
Outline: as §3

KRAS G13C = KRAS G13C (Homo sapiens, UniProt P01116+P62937, G13C); assay: as above; format: biochemical; conditions: read-out: KRAS G13C FRET data, IC50
Chain of KRAS G13C (P01116 1-169 isoform P01116-2 G13C): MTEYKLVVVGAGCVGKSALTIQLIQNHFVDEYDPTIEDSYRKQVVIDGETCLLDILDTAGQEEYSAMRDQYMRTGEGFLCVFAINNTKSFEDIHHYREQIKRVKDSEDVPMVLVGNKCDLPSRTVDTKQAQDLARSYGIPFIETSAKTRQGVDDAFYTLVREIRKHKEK
Chain of KRAS G13C (P62937 whole entry): as the sequence (P62937 whole entry) above
Outline: as §3

KRAS G13D = KRAS G13D (Homo sapiens, UniProt P01116+P62937, G13D); assay: as above; format: biochemical; conditions: KRAS G13D; read-out: KRAS G13D FRET data IC50
Chain of KRAS G13D (P01116 1-169 isoform P01116-2 G13D limits assumed): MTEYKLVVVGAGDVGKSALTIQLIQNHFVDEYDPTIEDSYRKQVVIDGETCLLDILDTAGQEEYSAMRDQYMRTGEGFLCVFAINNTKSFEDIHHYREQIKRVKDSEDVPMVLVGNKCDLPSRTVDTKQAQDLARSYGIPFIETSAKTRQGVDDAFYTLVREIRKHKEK
Chain of KRAS G13D (P62937 whole entry): as the sequence (P62937 whole entry) above
Outline: as §3

KRAS WT = KRAS WT (Homo sapiens, UniProt P01116+P62937); assay: as above; format: biochemical; conditions: KRAS WT; read-out: KRAS WT FRET data IC50
Chain of KRAS WT (P01116 1-169 isoform P01116-2 limits assumed): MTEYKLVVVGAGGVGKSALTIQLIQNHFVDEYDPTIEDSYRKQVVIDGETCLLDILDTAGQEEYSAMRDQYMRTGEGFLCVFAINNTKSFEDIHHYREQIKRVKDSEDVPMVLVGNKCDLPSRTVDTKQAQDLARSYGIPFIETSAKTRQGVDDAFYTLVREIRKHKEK
Chain of KRAS WT (P62937 whole entry): as the sequence (P62937 whole entry) above
Outline: as §3

NRAS G12C = NRAS G12C (Homo sapiens, UniProt P01111+P62937, G12C); assay: as above; format: biochemical; conditions: NRAS G12C; read-out: NRAS G12C FRET data IC50
Chain of NRAS G12C (P01111 whole entry G12C): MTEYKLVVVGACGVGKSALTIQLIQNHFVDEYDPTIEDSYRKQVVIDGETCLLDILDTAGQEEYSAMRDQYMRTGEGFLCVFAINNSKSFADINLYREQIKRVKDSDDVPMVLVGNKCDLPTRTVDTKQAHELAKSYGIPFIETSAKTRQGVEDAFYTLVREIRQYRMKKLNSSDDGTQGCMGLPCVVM
Chain of NRAS G12C (P62937 whole entry): as the sequence (P62937 whole entry) above

Chain of NRAS Q61R (P01111 whole entry Q61R, the tested form may be a part): as the sequence (P01111 whole entry G12C) above, with C12G, Q61R counted along it
Chain of NRAS Q61R (P62937 whole entry, the tested form may be a part): as the sequence (P62937 whole entry) above

IC50 (NRAS Q61R)	IC50 (NCI-H358 (K-Ras G12C))	IC50 (KRAS G12C)	IC50 (KRAS G12D)	IC50 (KRAS G12S)	IC50 (KRAS G12V)	IC50 (KRAS G13C)	IC50 (KRAS G13D)	IC50 (KRAS WT)	IC50 (NRAS G12C)	Compound	IC50 (Capan-1 (K-Ras G12V))
100 to 1000 nM										CCC[C@H]1CCN1C(=O)N[C@H]1Cc2nc(cs2)-c2ccc3c(c2)c(c(-c2cccnc2[C@H](C)OC)n3CC)CC(C)(C)COC(=O)[C@@H]2CCCN(N2)C1=O [Example A264]	
10 to 100 nM										CCn1c(-c2cccnc2[C@H](C)OC)c2c3cc(ccc31)-c1csc(n1)C[C@H](NC(=O)[C@H](C(C)C)N(C)C(=O)N1CCO[C@H](C)C1)C(=O)N1CCC[C@H](N1)C(=O)OCC(C)(C)C2 [Example A310]	
	100 to 1000 nM	10 to 100 nM	10 to 100 nM	10 to 100 nM	10 to 100 nM	10 to 100 nM	10 to 100 nM	10 to 100 nM	10 to 100 nM	CCn1c(-c2cccnc2[C@H](C)OC)c2c3cc(ccc31)-c1cc(O)cc(c1)C[C@H](NC(=O)[C@H](C(C)C)N(C)C(=O)[C@H]1CCN(C(=O)[C@H]3CCCN3)C1)C(=O)N1CCC[C@H](N1)C(=O)OCC(C)(C)C2 [Example A378]	1000 to 10000 nM
	100 to 1000 nM	10 to 100 nM	10 to 100 nM	10 to 100 nM	10 to 100 nM	10 to 100 nM	10 to 100 nM	10 to 100 nM	10 to 100 nM	CCn1c(-c2cccnc2[C@H](C)OC)c2c3cc(ccc31)-c1cc(O)cc(c1)C[C@H](NC(=O)[C@H](C(C)C)N(C)C(=O)[C@H]1CCN(C(=O)[C@@H]3CCCN3C)C1)C(=O)N1CCC[C@H](N1)C(=O)OCC(C)(C)C2 [Example A385]	100 to 1000 nM
	100 to 1000 nM	10 to 100 nM	10 to 100 nM	10 to 100 nM	100 to 1000 nM	10 to 100 nM	10 to 100 nM	10 to 100 nM	10 to 100 nM	CCn1c(-c2cccnc2[C@H](C)OC)c2c3cc(ccc31)-c1cc(O)cc(c1)C[C@H](NC(=O)[C@H](C(C)C)N(C)C(=O)[C@H]1CC[C@@H](CN(C)C)O1)C(=O)N1CCC[C@H](N1)C(=O)OCC(C)(C)C2 [Example A397]	100 to 1000 nM
	100 to 1000 nM	10 to 100 nM	100 to 1000 nM	10 to 100 nM	10 to 100 nM	10 to 100 nM	10 to 100 nM	10 to 100 nM	10 to 100 nM	CCn1c(-c2cccnc2[C@H](C)OC)c2c3cc(ccc31)-c1cc(O)cc(c1)C[C@H](NC(=O)[C@H](C(C)C)N(C)C(=O)[C@@H]1OC[C@@H]3CCC[C@@H]31)C(=O)N1CCC[C@H](N1)C(=O)OCC(C)(C)C2 [Example A407]	100 to 1000 nM
	10 to 100 nM	10 to 100 nM	1000 to 10000 nM	100 to 1000 nM	100 to 1000 nM	100 to 1000 nM	100 to 1000 nM	100 to 1000 nM	10 to 100 nM	CCn1c(-c2cccnc2[C@H](C)OC)c2c3cc(ccc31)-c1csc(n1)C[C@H](NC(=O)[C@H](C(C)C)N(C)C(=O)N1CC(C#N)(N(C)C)C1)C(=O)N1CCC[C@H](N1)C(=O)OCC(C)(C)C2 [Example A452]	10 to 100 nM
